Experimental findings from BindingDB's records for doi:10.1016/j.ejmech.2017.06.016 (University of Science and Technology of China, 2017) are described below.

Molecules are shown by their SMILES.

For this assay, the target named is T1, Cytoplasmic tyrosine-protein kinase BMX (Homo sapiens, UniProt P51813).
T1 sequence (P51813 whole entry): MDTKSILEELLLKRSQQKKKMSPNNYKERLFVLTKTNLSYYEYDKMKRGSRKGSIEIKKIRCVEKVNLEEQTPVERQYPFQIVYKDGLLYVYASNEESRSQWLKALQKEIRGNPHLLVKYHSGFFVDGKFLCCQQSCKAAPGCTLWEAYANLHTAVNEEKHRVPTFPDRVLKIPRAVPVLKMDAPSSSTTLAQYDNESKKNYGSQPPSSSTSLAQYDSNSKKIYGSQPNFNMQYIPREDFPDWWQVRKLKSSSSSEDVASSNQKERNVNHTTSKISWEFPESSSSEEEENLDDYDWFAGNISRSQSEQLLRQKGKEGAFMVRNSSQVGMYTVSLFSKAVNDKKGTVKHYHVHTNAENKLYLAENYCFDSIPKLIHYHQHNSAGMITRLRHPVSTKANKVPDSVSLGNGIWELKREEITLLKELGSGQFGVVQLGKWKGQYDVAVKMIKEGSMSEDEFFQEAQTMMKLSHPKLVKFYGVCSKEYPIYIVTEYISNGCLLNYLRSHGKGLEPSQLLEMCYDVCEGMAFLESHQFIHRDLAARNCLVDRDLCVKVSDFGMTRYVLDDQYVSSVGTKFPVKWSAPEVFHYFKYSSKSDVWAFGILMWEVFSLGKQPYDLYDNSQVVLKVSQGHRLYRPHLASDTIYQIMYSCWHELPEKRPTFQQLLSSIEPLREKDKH
The assay can be described thus: ChEBML_1715921.
Experimental: Inhibition of recombinant full length His-tagged human BMX expressed in baculovirus expression system using poly (4:1 Glu, Tyr) as substrate preincubated for 1 hr followed by substrate addition measured after 1 hr by ADP-glo assay
As a reminder, the IC50 is the concentration needed to halve the response being measured. Lower therefore signals higher potency. On to `C=CC(=O)Nc1cc(-n2c(=O)ccc3cnc4ccc(-c5cnc6ccccc6c5)cc4c32)ccc1C` [QL-XII-54], for which the IC50 stood at 0.019 µM.
Next, `C=CC(=O)Nc1cccc(-n2c(=O)ccc3cnc4ccc(-c5cn[nH]c5)cc4c32)c1` [QL-XI-13]: 0.011 µM; `C=CC(=O)Nc1cc(-n2c(=O)ccc3cnc4ccc(-c5ccc6c(c5)OCCO6)cc4c32)ccc1C` [QL-XII-115]: 0.013 µM; `C=CC(=O)Nc1cc(-n2c(=O)ccc3cnc4ccc(-c5ccsc5)cc4c32)ccc1C` [QL-XI-75]: 0.02 µM.
The same measure for `C=CC(=O)Nc1cccc(-n2c(=O)ccc3cnc4ccc(-c5ccc(N)nc5)cc4c32)c1` [QL-X-132]: 0.016 µM.
The molecule `C=CC(=O)N1CCc2ccc(-n3c(=O)ccc4cnc5ccc(-c6ccc(N)nc6)cc5c43)cc21` [QL-XII-45] came in with an IC50 of 0.013 µM.
